The subject of assay [1] is Zika virus. Briefly: Percent infectivity of Zika-infected VERO cells (FIG. 5). The assay is classed as cell-based. To be noted: FIGS. 4 and 5; 5 μM and 1 μM.
In assay [2] the test system is Zika virus. Briefly: Zika virus plaque assay on Vero cells. It counts as cell-based. To be noted: Vero cells infected with Zika virus.

Consider “dextran 3-[(2-aminoethyl)thio]propyl 17-carboxy-10,13,16-tris(carboxymethyl)-8-oxo-4-thia-7,10,13,16-tetraazaheptadec-1-yl 3-[[2-[[1-imino-2-(D-mannopyranosylthio)ethyl]amino]ethyl]thio]propyl ether complexes [Tilmanocept]”, for which the “Effect on Zika infection of VERO cells” value in assay [1] is reported as “no effect”. Further, the “Reduction of Zika virus in infected Vero cells” value in assay [2] was 99.9%.
